Laboratory results reported in paper PMC6627438, “Terrosamycins A and B, Bioactive Polyether Ionophores from Streptomyces sp. RKND004 from Prince Edward Island Sediment” (Marine Drugs, 2019).
Read-outs that look alike come from different tables or passages of the source.

Key:
[1] = tested on: human breast adenocarcinoma cells (ATCC HTB-26); experiment: Cytotoxicity assay (alamarBlue), HTB-26; assay type: cell-based; conditions: read-out: IC50 HTB-26
Method: (§1) In light of this information, 1, 2 and the known polyether standards were tested against a human breast adenocarcinoma cell line (HTB-26) and a human invasive breast ductal carcinoma cell line (MCF-7). The compounds were also tested in a healthy human foreskin fibroblast cell line (BJ) and healthy Cercopithecus aethiops kidney epithelial cells (Vero) as an evaluation of cytotoxicity toward healthy cells.
(§2) The cytotoxicities of compounds 1–5 were evaluated using two healthy cell lines—human foreskin fibroblast cells (BJ, ATCC CRL-2522) and Cercopithecus aethiops kidney epithelial cells (Vero, ATCC CCL-81)—as well as two cancer cell lines—human breast adenocarcinoma cells (ATCC HTB-26) and human invasive breast ductal carcinoma cells (ATCC MCF-7). Each cell line was grown and maintained in 15 mL of Eagle’s Minimal Essential Medium in T75 cm^2 cell culture flasks with the exception of HTB-26 cells which were grown in Dulbecco’s Modified Eagle’s Medium/Nutrient Mixture F-12 Ham. All growth media were supplemented with 10% fetal bovine serum, […] penicillin and 0.1 mg/mL streptomycin; the growth medium for MCF-7 cells was also supplemented with 0.01 mg/mL human recombinant insulin. All cell cultures were incubated at 37 °C in a humidified atmosphere with 5% CO2 and culture media was refreshed every two to three days. The cells were not allowed to exceed 80% confluency. At 80% confluency, the cells were counted and diluted in their respective growth medium without addition of antibiotics. Aliquots of 90 μL were added to a microwell plate at a density of 1 × 10^4 cells/well for Vero and HTB-26 cells and 5 × 10^3 cells/well for BJ fibroblast and MCF-7 cells. The plates were incubated at 37 °C with 5% CO2 for 24 h to allow cells to adhere to the plates prior to treatment. The vehicle DMSO was used to dissolve 1 and 2 and was present at a final concentration of 1% in each of the wells. A dilution series was prepared for each cell line using the respective growth medium and 10 μL aliquots of each was added to the respective plate in concentrations ranging from 128 μg/mL to 1 μg/mL in triplicate. Positive control wells contained only the growth medium and DMSO, negative control wells contained the growth medium, DMSO and cells and positive treated controls contained the growth medium, cells and a concentration range of either zinc pyrithione (BJ fibroblast), phenoxyethanol (Vero), or doxorubicin (HTB-26 and MCF-7). All plates were incubated at 37 °C with 5% CO2 for 24 h (BJ fibroblast, Vero) or 72 h (HTB-26, MCF-7). Following incubation, alamarBlue was added to each well at a concentration of 10% (v/v). Fluorescence was measured at 560 nm excitation and 590 nm emission using a Thermo Scientific Varioskan Flash plate reader at time zero and 4 h after treatment with alamarBlue. The change in 590 nm emission reading was used to calculate percent cell viability after each treatment relative to the negative controls. The IC50 values of compounds 1–5 for each cell line were calculated using GraphPad Prism 6.0.

[2] = tested on: human invasive breast ductal carcinoma cells (ATCC MCF-7); experiment: Cytotoxicity assay (alamarBlue), MCF-7; assay type: cell-based; conditions: read-out: IC50 MCF-7
Method: as §1, §2

[3] = tested on: methicillin-resistant S. aureus ATCC 33591 (MRSA); experiment: Antimicrobial assay (OD600 growth, CLSI microdilution), MRSA; assay type: cell-based, Staphyloccocus aureus; conditions: Staphylococcus aureus, 22 h, read-out: IC50 MRSA
Method: (§3) The antimicrobial activities of 1 and 2 were evaluated against a panel of pathogens. For comparison, three known polyether ionophore standards were selected and tested in parallel. […] Furthermore, salinomycin and monensin are currently approved and marketed as antibiotics and anticoccidial agents for cattle and poultry. The compounds were each tested against the Gram-positive pathogens methicillin-resistant Staphyloccocus aureus (MRSA), vancomycin resistant Enterococcus faecium (VRE) and Staphylococcus warneri, Gram-negative pathogens Pseudomonas aeruginosa and Proteus vulgaris, and the yeast Candida albicans. No activity was observed against P. aeruginosa, P. vulgaris or C. albicans at the highest concentration tested (128 μg/mL).
(§4) The antimicrobial activities of 1–5 were evaluated using a panel of human pathogens including methicillin-resistant S. aureus ATCC 33591 (MRSA), vancomycin resistant E. faecium EF379 (VRE), S. warneri ATCC 17917, P. aeruginosa ATCC 14210, P. vulgaris ATCC 12454 and C. albicans ATCC 14035. Assays were performed according to Clinical Laboratory Standards Institute testing standards in a 96-well plate and in triplicate. Compounds 1–5 were dissolved in sterile 20% DMSO and serially diluted creating a range of twelve concentrations between 128 μg/mL and 0.0625 μg/mL. A Thermo Scientific Varioskan Flash plate reader was used to determine cell growth by measuring the optical density at 600 nm at time zero and after incubation at 37 °C for 22 h. The change in OD600 was calculated, percentages of microorganism survival were compared to the vehicle control wells and IC50 values were determined using GraphPad Prism 6.0 (GraphPad Software, San Diego, CA, USA). Control antibiotics used were vancomycin for MRSA and S. warneri, rifampicin for VRE, gentamycin for P. aeruginosa, ciprofloxacin for P. vulgaris and nystatin for C. albicans.

[4] = tested on: vancomycin resistant E. faecium EF379 (VRE); experiment: Antimicrobial assay (OD600 growth, CLSI microdilution), VRE; assay type: cell-based, Enterococcus faecium; conditions: 22 h, read-out: IC50 VRE
Method: The antimicrobial activities of 1 and 2 were evaluated against a panel of pathogens. For comparison, three known polyether ionophore standards were selected and tested in parallel. […] The compounds were each tested against the Gram-positive pathogens methicillin-resistant Staphyloccocus aureus (MRSA), vancomycin resistant Enterococcus faecium (VRE) and Staphylococcus warneri, Gram-negative pathogens Pseudomonas aeruginosa and Proteus vulgaris, and the yeast Candida albicans.
as §4, with “Compounds 1–5 were dissolved in sterile 20% DMSO and serially diluted creating a range of twelve concentrations between 128 μg/mL and 0.0625 μg/mL.” left out

[5] = tested on: S. warneri ATCC 17917; experiment: Antimicrobial assay (OD600 growth, CLSI microdilution), S. warneri; assay type: cell-based; conditions: Staphylococcus warneri, read-out: IC50 S. warneri
Method: as §3, §4

[6] = tested on: Cercopithecus aethiops kidney epithelial cells (Vero, ATCC CCL-81); experiment: Cytotoxicity assay (alamarBlue), Vero; assay type: cell-based; conditions: Chlorocebus sabaeus, 24 h, read-out: IC50 Vero
Method: as §1, §2

[7] = tested on: human foreskin fibroblast cells (BJ, ATCC CRL-2522); experiment: Cytotoxicity assay (alamarBlue), BJ; assay type: cell-based; conditions: 24 h, read-out: IC50 BJ
Method: as §1, §2

[8] = HTB26, average ± SE (n = 3), 72 h, alamarBlue, breast cancer cell line
[9] = MCF7, average ± SE (n = 3), 72 h, alamarBlue, breast cancer cell line
[10] = average ± SE (n = 6), 37 °C, OD600
[11] = ATCC17917, average ± SE (n = 6), 37 °C, 22 h, OD600
[12] = average ± SE (n = 3), alamarBlue, healthy cell line

COc1cccc2c1C(=O)c1c(O)c3c(c(O)c1C2=O)C[C@@](O)(C(=O)CO)C[C@@H]3O[C@H]1C[C@H](N)[C@H](O)[C@H](C)O1 [doxorubicin control, doxorubicin]
IC50 [1, 8]: 4 ± 2 µM | IC50 [2, 9]: 0.8 ± 0.1 µM

CC[C@@]1([C@@H]2O[C@@H]([C@H]3O[C@@](O)(CO)[C@H](C)C[C@@H]3C)C[C@@H]2C)CC[C@H]([C@]2(C)CC[C@]3(C[C@H](O)[C@@H](C)[C@@H]([C@@H](C)[C@@H](OC)[C@H](C)C(=O)O)O3)O2)O1 [monensin (4), monensin]
IC50 [3, 10]: 1.5 ± 0.1 µM | IC50 [4, 10]: 8 ± 5 µM | IC50 [5, 11]: 2 ± 0.2 µM | IC50 [1, 8]: 10 ± 1 µM | IC50 [2, 9]: 7 ± 2 µM | IC50 [6, 12]: 10000 µM | IC50 [7, 12]: 245 ± 11 µM

CO[C@@H]1C[C@@H](C[C@H]2CC[C@H](C)[C@H]([C@@H](C)C(=O)O)O2)O[C@]2(O[C@](C)([C@H]3CC[C@@](C)([C@@H]4O[C@@H]([C@H]5O[C@@](O)(CO)[C@H](C)C[C@@H]5C)C[C@@H]4C)O3)C[C@H]2C)[C@@H]1C [nigericin (5), nigericin]
IC50 [3, 10]: 0.2 ± 0.1 µM | IC50 [4, 10]: 0.5 ± 0.1 µM | IC50 [5, 11]: 0.3 ± 0.1 µM | IC50 [1, 8]: 13 ± 2 µM | IC50 [2, 9]: 9 ± 3 µM | IC50 [6, 12]: 61 ± 8 µM | IC50 [7, 12]: 221 ± 10 µM

CO[C@H]1/C=C/O[C@@]2(C)Oc3c(C)c(O)c4c(O)c(c(/C=N/N5CCN(C)CC5)c(O)c4c3C2=O)NC(=O)/C(C)=C\C=C\[C@H](C)[C@H](O)[C@@H](C)[C@@H](O)[C@@H](C)[C@H](OC(C)=O)[C@@H]1C [rifampicin control, rifampicin]
IC50 [4, 10]: 1.1 ± 0.1 µM

CC[C@@H](C(=O)[C@@H](C)[C@@H](O)[C@H](C)[C@@H]1O[C@@H]([C@@H](CC)C(=O)O)CC[C@@H]1C)[C@H]1O[C@]2(C=C[C@@H](O)[C@]3(CC[C@@](C)([C@H]4CC[C@](O)(CC)[C@H](C)O4)O3)O2)[C@H](C)C[C@@H]1C [salinomycin (3), salinomycin]
IC50 [3]: 0.4 ± 0.1 µM | IC50 [4]: 0.8 ± 0.2 µM | IC50 [5, 11]: 0.9 ± 0.2 µM | IC50 [1, 8]: 13 ± 1 µM | IC50 [2, 9]: 10 ± 3 µM | IC50 [6, 12]: 78 ± 22 µM | IC50 [7, 12]: 196 ± 3 µM

C[C@@H]1C[C@H](C)[C@@](O)(C[C@H]2O[C@@](O)(C[C@@H](O)[C@@H](C)C(=O)[C@](C)(O)[C@@H]3CC[C@@](C)([C@H]4CC[C@@](C)(O)[C@H](C)O4)O3)[C@H](C)C[C@@H]2C)O[C@H]1C[C@H]1CC[C@H](C)[C@@H]([C@@H](C)C(=O)O)O1 [terrosamycin A (1), terrosamycin A]
IC50 [3]: 0.5 ± 0.2 µM | IC50 [4]: 0.58 ± 0.04 µM | IC50 ([5]; ATCC17917, 22 h): 0.9 ± 0.3 µM | IC50 ([1]; HTB26, 72 h): 10.1 ± 0.6 µM | IC50 ([2]; MCF7, 72 h): 6 ± 1 µM | IC50 [6]: 36 ± 6 µM | IC50 [7]: 79 ± 5 µM

CO[C@@]1(C[C@@H](O)[C@@H](C)C(=O)[C@](C)(O)[C@@H]2CC[C@@](C)([C@H]3CC[C@@](C)(O)[C@H](C)O3)O2)O[C@H](C[C@@]2(OC)O[C@@H](C[C@H]3CC[C@H](C)[C@@H]([C@@H](C)C(=O)O)O3)[C@H](C)C[C@@H]2C)[C@@H](C)C[C@H]1C [terrosamycin B (2), terrosamycin B]
IC50 [3]: 0.34 ± 0.04 µM | IC50 [4]: 0.5 ± 0.1 µM | IC50 ([5]; ATCC17917, 22 h): 0.7 ± 0.1 µM | IC50 ([1]; HTB26, 72 h): 6 ± 1 µM | IC50 ([2]; MCF7, 72 h): 3.9 ± 0.4 µM | IC50 [6]: 93 ± 4 µM | IC50 [7]: 267 ± 28 µM

CN[C@H](CC(C)C)C(=O)N[C@H]1C(=O)N[C@@H](CC(N)=O)C(=O)N[C@H]2C(=O)N[C@H]3C(=O)N[C@H](C(=O)N[C@H](C(=O)O)c4cc(O)cc(O)c4-c4cc3ccc4O)[C@H](O)c3ccc(c(Cl)c3)Oc3cc2cc(c3O[C@@H]2O[C@H](CO)[C@@H](O)[C@H](O)[C@H]2O[C@H]2C[C@](C)(N)[C@H](O)[C@H](C)O2)Oc2ccc(cc2Cl)[C@H]1O [vancomycin control, vancomycin]
IC50 [3]: 0.8 ± 0.1 µM | IC50 ([5]; ATCC17917, 22 h): 0.53 ± 0.01 µM
